# In patent US7601739B2, “Compounds having antiestrogenic and tissue selective estrogenic properties, and compounds with anti-androgenic properties for treatment of prostate cancer and androgen receptor dependent diseases” (Virgina Commonwealth University, priority 2006, dated 2009):
# Legend:
# [1] = biological target: T1, hERα D351Y (Homo sapiens, UniProt P03372, D351Y); experiment: Transient transfection reporter assay with hERα D351Y mutant; format: cell-based
# T1 construct: mammalian expression plasmid containing full length human ER cDNA, pCMV-hER; expressed in transfected cells
# T1 sequence (P03372 1-595 D351Y): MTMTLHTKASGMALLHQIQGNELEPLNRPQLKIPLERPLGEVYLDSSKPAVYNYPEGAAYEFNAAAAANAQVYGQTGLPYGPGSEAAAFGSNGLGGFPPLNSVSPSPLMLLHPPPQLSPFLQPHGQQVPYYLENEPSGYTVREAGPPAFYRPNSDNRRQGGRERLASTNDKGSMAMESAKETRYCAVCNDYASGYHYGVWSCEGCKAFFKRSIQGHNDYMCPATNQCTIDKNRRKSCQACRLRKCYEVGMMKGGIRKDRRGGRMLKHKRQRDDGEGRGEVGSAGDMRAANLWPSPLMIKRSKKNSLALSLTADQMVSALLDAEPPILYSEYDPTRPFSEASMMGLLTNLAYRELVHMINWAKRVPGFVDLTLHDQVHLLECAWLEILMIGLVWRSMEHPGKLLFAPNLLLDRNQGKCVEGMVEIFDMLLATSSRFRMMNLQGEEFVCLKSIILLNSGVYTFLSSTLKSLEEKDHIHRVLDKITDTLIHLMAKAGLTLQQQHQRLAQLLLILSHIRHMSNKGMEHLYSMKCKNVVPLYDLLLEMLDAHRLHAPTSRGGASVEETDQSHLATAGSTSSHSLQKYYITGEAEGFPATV
# Description: The tyrosine mutation (pCMV-D351Y) at amino acid 351 was introduced by using the Quick Change Site-Directed Mutagenesis Kit (Stratagene, La Jolla, Calif.) and pCMV-ER was used as the template. The primers constructed were as follows: 5′ primer (5′-[…]-3′) (SEQ ID NO. 9), the underlined nucleotide was changed to make the D351Y mutation) and a 3′ primer (5′-[…]-3′) (SEQ ID NO. 10).
# For the transient transfection reporter assays, the cells were plated in triplicate in 12-well plates at a density of 300000 cells/well in the phenol red-free DMEM (GIBCO/BRL, Grand Island, N.Y.) supplemented with 10% charcoal-stripped fetal bovine serum (Hyclone, Logan, Utah), Penicillin (100 unit/ml)/Streptomycin ([…]), 2 mML-glutamine and 1 mM sodium Pyruvate. 24 hrs later, the cells were transfected with three plasmids by using Superfect transfection kit (Qiagen, Valencia, Calif.). For the detection of hER activity, cells were transfected with 2 g hER expression plasmid (pCMV-ER ), 6 g luciferase reporter plasmid containing estrogen receptor response element (PGL-TATA-Luc), and 600 ng normalization control, β-galactosidase reporter plasmid (pCMV ). For the detection of hER activity, cells were transfected with 3 ug hER expression plasmid (pcDNA3.1-hER), 6 g luciferase reporter plasmid containing estrogen receptor response element (PGL-TATA-Luc), and 600 ng pCMV. For determining the influence of ER's major coactivator in breast, AIB 1, 2 g pcDNA3.1-AIB1 was added into the transfection plasmid solution mentioned previously.
# The transfected cells were rinsed with PBS and treated with various concentrations of test molecules and one […] (vehicle, DMSO or methanol) in phenol red-free culture medium. After incubation for further 24 hrs, the cells were washed with PBS and lysed with lysis buffer (Pierce, Rockford, Ill.). The lysate was used to determine the luciferase activity for ER's activity and the β-galactosidase activity for the normalization of transfection efficiency.
# For the luciferase activity assay, 20 μl of lysate and 100 μl luciferase assay buffer (Promega, Madison, Wis.) were added into a well of 96-well plate. The luminescence was detected by using luminescence microplate reader, LumiCount (Packard, Boston, Mass.). For the β-galactosidase activity assay, […] β-galactosidase assay buffer (Clontech, Palo Alto, Calif.) were added into a well of 96-well plate. The β-galactosidase activity was measured as luminescence strength by using luminescence microplate reader, LumiCount (Packard, Boston, Mass.). The normalized reporter activity was calculated by the luciferase activity divided by that of β-galactosidase.
# Amino acid 351 (D351) of hERα plays an essential role in regulating estrogenic or antiestrogenic compound's binding to hERα and the recruitment of corepressors. […] Based on this observation the hERα D351Y mutant is generated by PCR-based site directed mutagenesis method for use in the transient transfection reporter assay. The main goal of this testing is to elucidate the existence of the pure antiestrogenic property of the compounds of the invention and to determine whether the compounds estrogenic activity will increase due to the presence of hERα D351Y or not.
# In this assay, DMSO was used as reference.
# [2] = test system: MDA-MB-231 cells; experiment: hER negative breast cancer cell proliferation assay; format: cell-based, human; conditions: hER negative cell line
# Description: MCF-7 or MDA-MB-231 cells were inoculated into 12-well culture plates at 10000 cells in 2 ml maintained medium per well. Cells were allowed to attach to the bottom for 24 hrs incubation, then the seeding medium was removed and replaced by the experimental medium (phenol red-free DMEM supplemented with 5% charcoal-stripped fetal bovine serum and Penicillin (100 unit/ml)/Streptomycin ([…])). After 24 hr incubation, the test molecules dissolved in DMSO were added in the wells. […] The culture was continued for 3 days and the medium and tested compounds were replaced every two days. The final cell numbers were estimated with CellTiter proliferation assay kit (Promega, Madison, Wis.) by measuring the absorbance at 570 nm, which is directly proportional to the number of living cells in the culture.
# In this assay, MDA-MB-231 breast cancer cell line, a hER negative cell line, was used. DMSO was used as reference.
estrogenic activity against hERα D351Y compared with hERα wild type (FIG. 5) [1],estrogenic effects against mutant hERα D351Y compared with DMSO (FIG. 5) [1],SMILES,"proliferation effects against MDA-MB-231 cells (FIG. 6, words) [2]"
do not increase,even lower than that of DMSO,CCCCNC(=O)CCCCCCCCCCOCC1Cc2ccccc2CN1C(=O)c1cccc(OC)c1 (centres unmarked) [Compound 4],do not inhibit or stimulate the growth
do not increase,even lower than that of DMSO,CCCCNC(=O)CCCCCCCCCCOCC1Cc2ccccc2CN1C(=O)c1cccc(O)c1 (centres unmarked) [Compound 6],do not inhibit or stimulate the growth
do not increase,even lower than that of DMSO,CCCCNC(=O)CCCCCCCCCCOCC1Cc2ccccc2CN1C(=O)c1ccc(O)cc1 (centres unmarked) [Compound 7],
